For data set [1], the target named is Receptor-type tyrosine-protein kinase FLT3 (Homo sapiens) (UniProt P36888).
Description: Binding affinity to FLT3 (unknown origin) assessed as dissociation half life
Data set [2] in a line: Antiproliferative activity against human THP1 cells after 72 hrs by luminescent cell viability assay. The format is functional, cell-based. As to conditions: THP-1, 72 h.
Data set [3] addresses Receptor-type tyrosine-protein kinase FLT3 (Homo sapiens, UniProt P36888, ITD). Kind of data set: Inhibition of recombinant FLT3 ITD mutant (unknown origin) by RBC kinase assay.
Data set [4] is described as follows: Antiproliferative activity against human HEK293T cells assessed as growth inhibition at 5 uM after 72 hrs by luminescent cell viability assay. As to conditions: read-out: GI. The data set is classed as cell-based, HEK-293T.
Data set [5] concerns MV4-11. Kind of data set: Antiproliferative activity against human MV4-11 cells assessed as growth inhibition at 5 uM after 72 hrs by luminescent cell viability assay. The format is functional. As to conditions: MV4-11, 72 h, read-out: GI.
The test system of data set [6] is MV4-11. As to the kind of experiment: Antiproliferative activity against human MV4-11 cells after 72 hrs by luminescent cell viability assay. The data set is classed as functional, cell-based. Particulars: MV4-11, 72 h.
For data set [7], the target named is T1, Receptor-type tyrosine-protein kinase FLT3 (Homo sapiens, UniProt P36888).
T1 sequence (P36888 whole entry): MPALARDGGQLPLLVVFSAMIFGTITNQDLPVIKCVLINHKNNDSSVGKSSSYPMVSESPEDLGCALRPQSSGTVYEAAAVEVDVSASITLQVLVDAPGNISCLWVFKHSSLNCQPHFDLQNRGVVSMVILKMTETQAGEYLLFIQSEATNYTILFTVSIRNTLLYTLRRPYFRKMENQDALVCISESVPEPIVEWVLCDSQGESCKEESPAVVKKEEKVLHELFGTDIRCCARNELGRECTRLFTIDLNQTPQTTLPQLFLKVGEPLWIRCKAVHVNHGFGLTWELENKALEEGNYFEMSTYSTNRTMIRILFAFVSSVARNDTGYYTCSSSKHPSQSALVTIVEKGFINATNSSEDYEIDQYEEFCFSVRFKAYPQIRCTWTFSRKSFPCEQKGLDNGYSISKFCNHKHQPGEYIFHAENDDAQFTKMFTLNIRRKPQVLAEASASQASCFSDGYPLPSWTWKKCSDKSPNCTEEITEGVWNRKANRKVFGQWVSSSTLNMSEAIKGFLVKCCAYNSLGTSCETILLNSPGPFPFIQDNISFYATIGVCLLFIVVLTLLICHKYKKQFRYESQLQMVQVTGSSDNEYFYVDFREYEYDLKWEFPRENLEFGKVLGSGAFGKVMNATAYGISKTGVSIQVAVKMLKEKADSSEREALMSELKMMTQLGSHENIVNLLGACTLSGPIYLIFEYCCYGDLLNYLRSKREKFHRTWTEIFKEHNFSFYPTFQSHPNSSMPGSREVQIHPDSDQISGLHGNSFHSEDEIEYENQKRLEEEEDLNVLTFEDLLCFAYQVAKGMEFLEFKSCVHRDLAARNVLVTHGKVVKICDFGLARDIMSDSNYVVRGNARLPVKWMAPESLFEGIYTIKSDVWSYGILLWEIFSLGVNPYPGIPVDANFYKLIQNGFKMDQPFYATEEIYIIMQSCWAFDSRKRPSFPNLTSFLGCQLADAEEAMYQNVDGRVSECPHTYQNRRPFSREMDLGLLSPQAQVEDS
As to the kind of experiment: Inhibition of recombinant FLT3 (unknown origin) by TR-FRET assay. In general terms: In TR-FRET formats the signal depends on donor and acceptor labels being close together.

Data set [8] is described as follows: Antiproliferative activity against human HL60 cells assessed as growth inhibition at 5 uM after 72 hrs by luminescent cell viability assay. The data set is classed as functional. As to conditions: HL-60, 72 h, read-out: GI.
The target in data set [9] is MAP kinase-interacting serine/threonine-protein kinase 1 (Homo sapiens) (UniProt Q9BUB5). Kind of data set: Inhibition of MNK1 (unknown origin) at 10 uM.
Data set [10] concerns K562. As to the kind of experiment: Antiproliferative activity against human K562 cells assessed as growth inhibition at 5 uM after 72 hrs by luminescent cell viability assay. The data set is classed as functional. Particulars: K562, 72 h, read-out: GI.
The target of data set [11] is MAP kinase-interacting serine/threonine-protein kinase 2 (Homo sapiens) (UniProt Q9HBH9). As to the kind of experiment: Inhibition of MNK2 (unknown origin) at 10 uM.
A short description of data set [12]: Antiproliferative activity against human THP1 cells assessed as growth inhibition at 5 uM after 72 hrs by luminescent cell viability assay. The format is functional. As to conditions: THP-1, 72 h, read-out: GI.
In data set [13] the target is Receptor-type tyrosine-protein kinase FLT3 (Homo sapiens, UniProt P36888, D835Y). As to the kind of experiment: Inhibition of recombinant FLT3 D835Y mutant (unknown origin) by TR-FRET assay.

Some results are limits rather than exact numbers.

Here are results for ten compounds from ChEMBL document CHEMBL3352474, “Design, synthesis and biological evaluation of FLT3 covalent inhibitors with a resorcylic acid core” (Bioorg Med Chem, 2014).

Chain of MAP kinase-interacting serine/threonine-protein kinase 2 (Homo sapiens) (Q9HBH9 whole entry, looked up): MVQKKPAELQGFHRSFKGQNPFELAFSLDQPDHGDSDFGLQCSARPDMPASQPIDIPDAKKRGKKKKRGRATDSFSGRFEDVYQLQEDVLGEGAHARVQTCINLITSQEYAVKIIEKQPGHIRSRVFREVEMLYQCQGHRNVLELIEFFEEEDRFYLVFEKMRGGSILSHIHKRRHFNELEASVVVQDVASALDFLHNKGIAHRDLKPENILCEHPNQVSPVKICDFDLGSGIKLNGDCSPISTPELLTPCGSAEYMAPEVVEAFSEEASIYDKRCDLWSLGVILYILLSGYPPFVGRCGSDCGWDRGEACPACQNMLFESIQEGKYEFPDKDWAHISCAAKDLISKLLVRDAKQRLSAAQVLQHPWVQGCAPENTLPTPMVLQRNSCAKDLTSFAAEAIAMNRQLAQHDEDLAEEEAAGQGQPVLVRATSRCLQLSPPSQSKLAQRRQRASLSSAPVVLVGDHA
Chain of MAP kinase-interacting serine/threonine-protein kinase 1 (Homo sapiens) (Q9BUB5 whole entry, looked up): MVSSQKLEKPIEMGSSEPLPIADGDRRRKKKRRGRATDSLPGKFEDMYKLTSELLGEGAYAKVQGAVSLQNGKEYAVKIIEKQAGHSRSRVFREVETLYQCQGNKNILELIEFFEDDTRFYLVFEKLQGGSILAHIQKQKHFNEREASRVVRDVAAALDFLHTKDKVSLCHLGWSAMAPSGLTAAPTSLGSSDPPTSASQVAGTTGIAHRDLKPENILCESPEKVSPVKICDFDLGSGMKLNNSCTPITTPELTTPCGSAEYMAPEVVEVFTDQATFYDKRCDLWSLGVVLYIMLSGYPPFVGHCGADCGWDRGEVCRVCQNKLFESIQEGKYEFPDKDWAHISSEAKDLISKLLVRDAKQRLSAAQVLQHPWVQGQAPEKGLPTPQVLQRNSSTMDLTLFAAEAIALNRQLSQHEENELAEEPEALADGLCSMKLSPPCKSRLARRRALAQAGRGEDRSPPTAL

Compound `CCN(CC)CCNC(=O)c1c(C)[nH]c(/C=C2\C(=O)Nc3ccc(F)cc32)c1C` came in with a T1/2 in data set [1] of 11.3 min.
As to `COc1cc(O)c(C(=O)OCc2ccc(Br)cc2)c(/C=C/CN2C(=O)C=CC2=O)c1`, the IC50 is 7.97 µM in data set [2]; more than 30 µM in [3]; 1.01 µM in [6]; 1.9 µM in data set [7]; 1.74 µM in [13]. The inhibition at 72 h, 5 µM in data set [4] was 20.1%. Moreover, the inhibition of growth at 5 µM turned out to be 97.9% in data set [5], 36.7% in [8], 28.7% in [10] and 0% in data set [12]. The inhibition was found to be 4.3% in data set [9] and 0% in [11].
Consider `CC(C)OC(=O)c1c(O)cc(OCCN2CCOCC2)cc1CCCN1C(=O)C=CC1=O`, for which the 50% inhibitory concentration (IC50) was determined as 5.43 µM in data set [2]; 8.87 µM in data set [3]; 3.51 µM in [6]; 0.58 µM in data set [7]; 0.81 µM in [13]. In data set [4], the inhibition at 72 h, 5 µM came out at 13.3%. The inhibition of growth at 5 µM in [5] amounted to 99.8%; in data set [8] it was 98.9%; in data set [10], 99.3%; in data set [12] it was 81.5%. For the same compound, the values for the inhibition in [9] and in [11] were 8.8% and 1.8%, respectively.
In the case of `COc1cc(O)c(C(=O)OC(C)C)c(/C=C/CN2C(=O)C=CC2=O)c1`, the IC50 in data set [2] worked out at 7.32 µM; in data set [3], 9.79 µM; in data set [6] it was 1.73 µM; in data set [7], 0.54 µM; in data set [13], 1.34 µM. In addition, the inhibition at 72 h, 5 µM in data set [4] came to 8%. Further, the inhibition of growth at 5 µM in [5] turned out to be 99.8%; in data set [8], 65.7%; in [10], 95.7%; in data set [12] it was 41.8%. In addition, the inhibition came out at 5.4% in [9] and 4.1% in data set [11].
Consider `COc1cc(O)c(C(=O)OC(C)C)c(CCCN2C(=O)C=CC2=O)c1`, for which the IC50 in data set [2] came out at 6.74 µM; in [3], 13.2 µM; in data set [6], 1.57 µM; in data set [7] it was 0.43 µM; in data set [13], 3.03 µM. Also, in [4], the inhibition at 72 h, 5 µM came out at 13.4%. For the same compound, the inhibition of growth at 5 µM in data set [5] turned out to be 99.8%; in data set [8], 67.9%; in data set [10], 98.9%; in [12] it was 98.8%. Moreover, the inhibition in data set [9] was determined as 6.2%; in [11], 2.4%.
With `COc1cc(/C=C/CN2C(=O)C=CC2=O)c(C(=O)OC(C)C)c(OC(C)=O)c1`, the IC50 in [2] amounted to 10.4 µM; in data set [3], 21.8 µM; in data set [6], 2.15 µM; in data set [7], 3.37 µM; in data set [13], 3.61 µM. The inhibition at 72 h, 5 µM in data set [4] was 47.4%. Further, the inhibition of growth at 5 µM in [5] turned out to be 99.8%; in data set [8] it was 87.9%; in [10], 99.2%; in data set [12] it was 3.3%. Further, the inhibition in [9] came out at 6.7%; in [11], 5%.
For `COc1cc(O)c(C(=O)OCc2ccc(F)cc2)c(/C=C/CN2C(=O)C=CC2=O)c1`, the IC50 is 7.34 µM in data set [2]; more than 30 µM in data set [3]; 1.46 µM in data set [6]; 1.64 µM in [7]; 0.95 µM in [13]. Also, the inhibition at 72 h, 5 µM in data set [4] was determined as 37.9%. In addition, the inhibition of growth at 5 µM amounted to 99.7% in data set [5], 82.2% in data set [8], 96.4% in [10] and 0% in [12]. Besides, the inhibition in data set [9] worked out at 4.1%; in data set [11], 0%.
With `COc1cc(O)c(C(=O)OCC(C)c2ccccc2)c(/C=C/CN2C(=O)C=CC2=O)c1` (centres undefined), the IC50 in data set [2] was more than 10 µM; in [3] it was more than 30 µM; in data set [6] it was 3.38 µM; in data set [7], 3.01 µM; in data set [13], 5.2 µM. Besides, in data set [4], the inhibition at 72 h, 5 µM is 0%. In addition, the inhibition of growth at 5 µM in [5] was found to be 99%; in [8] it was 56%; in data set [10], 74.9%; in [12], 0%. Further, the figures for the inhibition in data set [9] and in data set [11] were 8.6% and 0%, respectively.
With `C=CS(=O)(=O)NC/C=C/c1cc(OC)cc(O)c1C(=O)OC(C)C`, the IC50 in [2] worked out at 14.7 µM; in [3], 2.25 µM; in data set [6], 4.66 µM; in data set [7], 10.8 µM; in data set [13], 12 µM. Also, the inhibition at 72 h, 5 µM in data set [4] is 0.1%. In addition, the inhibition of growth at 5 µM was 72.3% in data set [5], 16.6% in [8], 36.2% in [10] and 19.9% in [12]. Further, the inhibition came out at 5.6% in data set [9] and 13.9% in data set [11].
In the case of `COc1cc(O)c(C(=O)OCC2CCCCC2)c(/C=C/CN2C(=O)C=CC2=O)c1`, the IC50 in [2] is 7.71 µM; in data set [3], more than 30 µM; in data set [6] it was 1.97 µM; in data set [7], 2.69 µM; in [13], 2.1 µM. The inhibition at 72 h, 5 µM in [4] was 6.9%. The inhibition of growth at 5 µM worked out at 99.8% in data set [5], 71% in data set [8], 85.1% in data set [10] and 5.9% in [12]. Moreover, the inhibition stood at 9.7% in data set [9] and 0% in data set [11].

Broadly, the IC50 is the point on the concentration scale where inhibition reaches its midpoint.
